Source: patent US7129334B2, “Synthetic peptide and uses for same” (priority 2001, dated 2006)
Where no end group is shown, it is not given here.

Legend:
[1] = Mitogenic activity of synthetic constructs (deletion series); format: cell-based; conditions: constructs of 5 to 21 amino acids compared
Description: Several synthetic constructs were made based on portions of this sequence by deleting one amino acid from one terminal at a time. In this manner, several constructs consisting of 5 to 21 amino acids were made and tested for mitogenic activity. […] […] This peptide is designated hereinafter as Oxynor peptide -10.

PC12 cells = assay: Neurite growth on PC12 cells; format: cell-based
Method: Biological Activity of Fragments on PC12 cells: The trypsin digested fragments in various concentrations were tested for neurite growth on PC12 cells. Tissue culture plates having 24 wells were seeded with 10^5 PC12 cells in serum free Dulbeco Modified Eagle's medium (DMEM). The results were read after 96 hours for neurite outgrowth.

4 mm punched wounds = 4 mm punched wounds on the back of mice; format: in vivo
Method: Experimentally produced 4 mm punched wounds on the back of mice were treated with β taipoxin to compare with Oxynor peptide-10 treatment.

[2] = system: 6 mm ischemic skin wounds; assay: 6 mm ischemic skin wounds in rat; format: in vivo; conditions: 100 μg/ml in hydrogel vehicle once daily; days 7 and 10
Method: Natural β-taipoxin and Oxynor peptide-10 were tested against each other in vivo at a concentration of 100 μg/ml in hydrogel vehicle applied once daily to help heal 6 mm ischemic skin wounds in rat. At days 7 and 10 the wounds treated with Oxynor peptide-10 were about 15% smaller in area than the wounds treated with natural β-taipoxin.

Anti-β-taipoxin = assay: Immunological reaction with anti-β-taipoxin; format: binding, mice
Description: This proves that Oxynor peptide-10 is an integral part of the natural β-taipoxin.

Row | Substance | mitogenic activity [1] | neurite growth of trypsin digest fragments (PC12 cells; 10^5 PC12 cells, serum free DMEM, read after 96 hours) | closure of wounds (4 mm punched wounds; after six days, PBS controls open) | histological examination of the skin around the wounds (4 mm punched wounds; mice, treated wounds) | neurite growth on PC12 cells (PC12 cells; similar concentrations (2 to 5) in serum-free medium) | wound area smaller than wounds treated with natural β-taipoxin [2] | immunological reaction with anti-β-taipoxin made in mice (Anti-β-taipoxin)
1 | Ser Leu Leu Asn Phe (SLLNF; SYNTHESIZED. CORRESPONDS TO POSITIONS 4-8 ABOVE.) [Oxynor peptide-5] | active, but less active | – | – | – | – | – | –
2 | KGGSLLNFANLIENDVPIDHM [Oxynor peptide-21] | – | most neurite growth at the lowest concentration | – | – | – | – | –
3 | SLLNFANLIE [Oxynor peptide-10] | most active | – | complete closure of the wounds | epidermis almost like normal skin | produced neurite growth | about 15% | reacted immunologically
